Laboratory results published in patent EP0738149B1 (priority 1994, dated 1995).

Tests used:
rats = details: Rattus norvegicus, po, read-out: RATS scMet ED50
mice = details: Mus musculus, ip, read-out: MICE scMet ED50, mice, i.p.; Table 16
[1] = system: mechanically dissociated neonatal rat cerebellum; assay: Enhancement of cell survival in cultures of neonatal rat cerebellum (no NMDA); type: cell-based; details: 24 hours after addition, percentage of the number of control cells on the fourth day
Experimental: The cerebellum was aseptically dissociated from 6 or 7-day old rat pups and placed in a 15ml sterile plastic conical tube containing 3ml of Dulbecco's modified Eagle's medium (DMEM) with a high glucose concentration ([…]) and 2mM (v/v) L-glutamine and an antibiotic antimitotic mixture. The cerebella were then dissociated after 20-25 passages through a sterile 13 gauge, 10cm long stainless steel needle attached to a 5ml syringe with an inserted 45 micrometer pore nylon sieve. The dissociated cells were centrifuged at 200g for 5 minutes. […] Cell viability was determined by the tryptan blue exclusion test.
Cells were plated at a density of 200/mm^2 on poly-L-lysine coated surfaces. Poly-L-lysine coated glass coverslips were prepared at least one hour in advance of plating by immersing sterile coverslips in sterile distilled water solution containing 15 microgram/ml poly-L-lysine, and washing in sterile water just prior to use. […] After three days in culture, the media was replaced with media containing the desired test compound. Each test compound was tested in duplicate. Toxic-dose response was determined for each compound.
Cell cultures were grown as described above but in the absence of NMDA and after 3 days a dose of test compound was added. Cell survival was monitored as described above.

MAO-A = molecular target: T1, MAO-A (Rattus norvegicus, UniProt P21396); details: ex vivo brain
T1 sequence (P21396 1-526): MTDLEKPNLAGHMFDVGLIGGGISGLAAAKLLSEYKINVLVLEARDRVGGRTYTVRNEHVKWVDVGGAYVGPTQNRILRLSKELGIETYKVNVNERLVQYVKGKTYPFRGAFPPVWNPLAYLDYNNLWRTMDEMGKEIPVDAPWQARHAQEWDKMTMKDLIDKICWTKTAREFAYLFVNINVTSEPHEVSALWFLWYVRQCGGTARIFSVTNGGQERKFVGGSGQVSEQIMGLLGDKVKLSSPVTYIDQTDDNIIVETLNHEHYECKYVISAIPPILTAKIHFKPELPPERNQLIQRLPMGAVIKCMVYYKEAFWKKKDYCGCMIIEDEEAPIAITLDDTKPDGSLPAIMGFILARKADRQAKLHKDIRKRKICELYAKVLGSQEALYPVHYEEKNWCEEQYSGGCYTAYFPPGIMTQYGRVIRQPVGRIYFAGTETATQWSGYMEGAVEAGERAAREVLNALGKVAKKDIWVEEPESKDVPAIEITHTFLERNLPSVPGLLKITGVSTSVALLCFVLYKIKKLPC
Excerpt: The brains of some rats from each experimental group in Exp. 1 (chronic treatment of 80 days) and Exp. 2 (acute treatment of 14 days) were ex vivo analyzed for MAO-A and MAO-B activity.

hypoxic rat = assay: α-MpT-induced hypokinesia in hypoxic rat (locomotor activity), Experiments 1A-1C; type: in vivo; details: Mean ± SEM
Experimental: Experiment 1A. Wistar male rats, 15-19 month-old, were exposed to a single hypoxic episode which is assumed to decrease the level of dopamine in the brain. […] The drugs were administered by gavage, using a special syringe equipped with rounded tip that could be directed into the stomach. The dose was contained in 0.3-0.5 mL of distilled water. The rats were pretreated for 70-80 days with daily doses of the test drugs and received intra-peritoneal (i.p.) α-MpT (α-methyl-p-tyrosine) at a dose of 100mg/kg in 0.3-0.5 mL saline. Controls received saline. α-MpT is assumed to inhibit the formation of L-Dopa from tyrosine and, consequently the formation of dopamine itself. Lack of central dopamine is expressed as hypokinesia. Following the injection of α-MpT, motor activity was recorded for the duration of 10 hours. Locomotion scores were taken in seven fully-computerized cages (26x25cm) having a grid of infra-red beams at 4 cm-intervals. Crossing of a beam initiated an electric signal which was fed into a computer. The number of crossings over a given period provided a measure of locomotion. The records gave two data categories: (a) "small movements" originating in stationary activities such as grooming and scratching and (b) "big movements" originating in ambulation and recorded as the simultaneous crossing of more than two beams."Total movements" include both categories. Counts of motor activity in the presence of α-MpT were related as percent with respect to counts in its absence in the corresponding control group (unlesioned or hypoxia-lesioned). Motor activity counts of drug-treated rats were related to the hypoxia saline-treated as 100%. All behavioral tests were performed 90-120 min. after administration of the last dose of the test compound.
Experiment 1B. […] The drugs were given i.p. • (3) Duration of the treatment: 21 days. • (4) Dose of α-MpT: 70 mg/Kg.

[2] = Exp 1A, 0.5mg/kg/Day gavage 70-80 days, α-MpT 100mg/kg i.p., Hour 1
[3] = Exp 1A, 0.5mg/kg/Day gavage 70-80 days, α-MpT 100mg/kg i.p., Hour 2
[4] = Exp 1A, 0.5mg/kg/Day gavage 70-80 days, α-MpT 100mg/kg i.p., Hour 3
[5] = Exp 1A, 0.5mg/kg/Day gavage 70-80 days, α-MpT 100mg/kg i.p., Hour 4
[6] = Exp 1A, 0.5mg/kg/Day gavage 70-80 days, α-MpT 100mg/kg i.p., Hour 5
[7] = Exp 1A, 0.5mg/kg/Day gavage 70-80 days, α-MpT 100mg/kg i.p., Hour 7
[8] = Exp 1A, 0.5mg/kg/Day gavage 70-80 days, α-MpT 100mg/kg i.p., Hour 8
[9] = Exp 1A, 0.5mg/kg/Day gavage 70-80 days, α-MpT 100mg/kg i.p., Hour 9
[10] = Exp 1A, 0.5mg/kg/Day gavage 70-80 days, α-MpT 100mg/kg i.p., Hour 10
[11] = Exp 1B, 0.3 mg/Kg daily i.p. 21 days, α-MpT 70 mg/Kg, Hour 1
[12] = Exp 1B, 0.3 mg/Kg daily i.p. 21 days, α-MpT 70 mg/Kg, Hour 2
[13] = Exp 1B, 0.3 mg/Kg daily i.p. 21 days, α-MpT 70 mg/Kg, Hour 3
[14] = Exp 1B, 0.3 mg/Kg daily i.p. 21 days, α-MpT 70 mg/Kg, Hour 4
[15] = Exp 1B, 0.3 mg/Kg daily i.p. 21 days, α-MpT 70 mg/Kg, Hour 5
[16] = Exp 1B, 0.3 mg/Kg daily i.p. 21 days, α-MpT 70 mg/Kg, Hour 6
[17] = Exp 1B, 0.3 mg/Kg daily i.p. 21 days, α-MpT 70 mg/Kg, Hour 7
[18] = Exp 1B, 0.3 mg/Kg daily i.p. 21 days, α-MpT 70 mg/Kg, Hour 8
[19] = Exp 1B, 0.3 mg/Kg daily i.p. 21 days, α-MpT 70 mg/Kg, Hour 9
[20] = Exp 1B, 0.3 mg/Kg daily i.p. 21 days, α-MpT 70 mg/Kg, Hour 10

With CC(=O)N[C@@H]1CCc2ccccc21 [Example 18, (R)-N-Acetyl-1-aminoindan] the ED50 (rats) was > 250 mg/kg, the ED50 (mice) was 66 mg/kg and the “% ENHANCED SURVIVAL” value ([1]; 0.01 µM) was 145%. The “% ENHANCED SURVIVAL” value ([1]; 0.10 µM) was 130% and the “% ENHANCED SURVIVAL” value ([1]; 1.00 µM) was 126%.
N[C@@H]1CCc2ccccc21 [R-AI, (R)-1-aminoindan] was tested, and the “% inhibition of MAO A acute treatment” value (MAO-A; acute treatment of 14 days) was 13% and the “% inhibition of MAO A chronic treatment” value (MAO-A; chronic treatment of 80 days) was 6%.
C#CCN(C)[C@H](C)Cc1ccccc1 [deprenyl] was tested, and the “Locomotor activity after α-MpT treatment, recorded as big movements” value (from here on “Locomotor activity … as big movements”) (hypoxic rat; [2]) was 61 ± 15%, the “Locomotor activity after α-MpT treatment, recorded as total movements” value (shortened to “Locomotor activity … as total movements”) (hypoxic rat; [2]) was 88 ± 23% and the “Locomotor activity … as big movements” value (hypoxic rat; [3]) was 103 ± 22%. The “Locomotor activity … as total movements” value (hypoxic rat; [3]) was 131 ± 30%, the “Locomotor activity … as big movements” value (hypoxic rat; [4]) was 184 ± 39% and the “Locomotor activity … as total movements” value (hypoxic rat; [4]) was 141 ± 26%. The “Locomotor activity … as big movements” value (hypoxic rat; [5]) was 85 ± 34%, the “Locomotor activity … as total movements” value (hypoxic rat; [5]) was 191 ± 45% and the “Locomotor activity … as big movements” value (hypoxic rat; [6]) was 171 ± 61%. The “Locomotor activity … as total movements” value (hypoxic rat; [6]) was 229 ± 40%, the “Locomotor activity … as big movements” value (hypoxic rat; Exp 1A, 0.5mg/kg/Day gavage 70-80 days, α-MpT 100mg/kg i.p., Hour 6) was 65 ± 17% and the “Locomotor activity … as big movements” value (hypoxic rat; [7]) was 96 ± 29%. The “Locomotor activity … as total movements” value (hypoxic rat; [7]) was 204 ± 7%, the “Locomotor activity … as big movements” value (hypoxic rat; [8]) was 91 ± 40% and the “Locomotor activity … as total movements” value (hypoxic rat; [8]) was 131 ± 23%. For the same compound, the “Locomotor activity … as big movements” value (hypoxic rat; [9]) was 84 ± 23%, the “Locomotor activity … as total movements” value (hypoxic rat; [9]) was 137 ± 21% and the “Locomotor activity … as big movements” value (hypoxic rat; [10]) was 29 ± 10%. For the same compound, the “Locomotor activity … as total movements” value (hypoxic rat; [10]) was 116 ± 22%, the “Locomotor activity … as big movements” value (hypoxic rat; [11]) was 70 ± 10% and the “Locomotor activity … as total movements” value (hypoxic rat; [11]) was 68 ± 9%. For the same compound, the “Locomotor activity … as big movements” value (hypoxic rat; [12]) was 91 ± 19%, the “Locomotor activity … as total movements” value (hypoxic rat; [12]) was 95 ± 11% and the “Locomotor activity … as big movements” value (hypoxic rat; [13]) was 85 ± 19%. For the same compound, the “Locomotor activity … as total movements” value (hypoxic rat; [13]) was 126 ± 22%, the “Locomotor activity … as big movements” value (hypoxic rat; [14]) was 88 ± 23% and the “Locomotor activity … as total movements” value (hypoxic rat; [14]) was 118 ± 20%. For the same compound, the “Locomotor activity … as big movements” value (hypoxic rat; [15]) was 87 ± 11%, the “Locomotor activity … as total movements” value (hypoxic rat; [15]) was 83 ± 24% and the “Locomotor activity … as big movements” value (hypoxic rat; [16]) was 67 ± 8%. The “Locomotor activity … as total movements” value (hypoxic rat; [16]) was 78 ± 9%, the “Locomotor activity … as big movements” value (hypoxic rat; [17]) was 62 ± 9% and the “Locomotor activity … as total movements” value (hypoxic rat; [17]) was 56 ± 7%. The “Locomotor activity … as big movements” value (hypoxic rat; [18]) was 70 ± 9%, the “Locomotor activity … as total movements” value (hypoxic rat; [18]) was 85 ± 13% and the “Locomotor activity … as big movements” value (hypoxic rat; [19]) was 132 ± 24%. For the same compound, the “Locomotor activity … as total movements” value (hypoxic rat; [19]) was 111 ± 12%, the “Locomotor activity … as big movements” value (hypoxic rat; [20]) was 54 ± 13% and the “Locomotor activity … as total movements” value (hypoxic rat; [20]) was 61 ± 12%.
